Assay results: publication PMC3320615, “β-Microseminoprotein Endows Post Coital Seminal Plasma with Potent Candidacidal Activity by a Calcium- and pH-Dependent Mechanism” (PLoS Pathogens, 2012)

B1: recombinant MSP: Recombinant human β-microseminoprotein from R&D Systems (protein)
chain: SCYFIPNEGVPGDSTRKCMDLKGNKHPINSEWQTDNCETCTCYETEISCCTLVSTPVGYDKDNCQRIFKKEDCKYIVVEKKDPKKTCSVSEWII

How the values were obtained:
erythrocytes = test: Lysis of erythrocytes; format: cell-based, human; details: 100 µM; 1 ½ hour; absorbance at 550 nm; vs 2% Triton-X100
Method: (§1) The cytotoxicity of MSP was evaluated by the ability of 100 µM MSP66–76 or MSP66–76E/Q to cause LDH release from HaCaT cells and lysis of erythrocytes.
(§2) Supplementary file ppat.1002625.s006.tif: Table S1 Cytoxic and hemolytic Effect of MSP66–76E/Q and MSP66–76. HaCaT cells were treated with 100 µM of MSP66–76E/Q and MSP66–76 over night. The release of LDH was subsequently determined by colorimetric assay and depicted as percent of LDH release of cells treated with 2% Triton- X100. Erythrocytes were treated for 1 ½ hour with 100 µM of MSP66–76E/Q and MSP66–76 followed by centrifugation. Lysis was determined by measuring hemoglobin in the supernatant by measuring the absorbance at 550 nm. Results are depicted as % of lysis compared to lysis obtained by 2% Triton-X100. (TIF) Click here for additional data file.

HaCaT cells = test: LDH release from HaCaT cells; format: cell-based, human; details: 100 µM; over night; colorimetric; vs 2% Triton-X100
Method: as §1, §2

[1] = tested on: Candida albicans ATCC 90028; test: CFU assay with C. albicans; format: cell-based; details: for Estimate (difference between means of log values): control - treatment, pH 4
Text: Candida albicans strains: ATCC 90028, CAF-1-2, SC5814, BM4f35II68, vaginal clinical isolates from Dept. of Clincal Microbiology, Skåne University Hospital, SO_303369 and SO_503471. Candida parapsilosis strains: ATCC 90018, BD1800, BD17837, and BM24/68/09. Candida glabrata strains: ATCC 90030, clinical isolates from Dept. of Clincal Microbiology, Skåne University Hospital, SO_3336, SO_3400 and SO_503413. All strains were inoculated from frozen culture and grown in Yeast extract-Peptone-Dextrose (YPD) (Sigma) and on Sabourand Dextrose Broth (SAB) (Difco) plates at 30°C with 5% (v/v) CO2. If not otherwise stated, ATCC 90028 was used for candidacidal experiments.
(§3) Candida albicans was grown over night, washed, and resuspended in 10 mM Tris, 5 mM glucose, pH 7.4 or pH 4. Approximately 4×10^3 to 10^4 CFU of C. albicans were incubated with the test substance in low or neutral pH buffer for 4 h at 37°C. After incubation, the suspension was diluted and plated. Colonies were counted after two days incubation of the plates at 30°C. Bacteria from overnight cultures were inoculated in fresh medium and grown for 3 h, washed in 10 mM Tris, 5 mM glucose pH 7.4. Approximately 8×10^4 CFU were incubated with sample in 10 mM Tris, 5 mM glucose pH 7.4 or pH 4 for 1 h at 37°C, diluted, plated and incubated over night at 37°C and the colonies counted.
Statistical analysis was performed using SAS 9.2 software (SAS Institute, Cary, NC). Colony counts were log transformed. In order to choose the statistical method, interactions between the Treatment and Experiment were investigated. Treatments were screened by doing pair wise comparisons of each treatment to a control. Statistical tests used for the comparisons included MIXED procedure and LSMEANS statement. All tests where P-value<.05 were considered to indicate statistical significance. P-values were not adjusted for the multiple comparisons.
“Estimate” is the estimate of the difference between means of log values of treatment 1 and treatment 2

C. albicans = test: Antifungal gel overlay assay (AU-PAGE); format: cell-based, Candida albicans
Method: Gel overlay assay was performed essentially as described. Briefly, duplicate samples were run on native Acid Urea (AU-PAGE) gels in 5% (v/v) acetic acid at 100 V for 1 h 20 min. Candida albicans was grown over night, washed and resuspended in 10 mM NaPO4 pH 7.4 and approximately 1×10^5 CFU were added to 12 ml melted underlay agarose (10 mM NaPO4, pH 7.4, 0.03% SAB, 1% agarose type 1 (Sigma, St. Louis, MO)) and poured into a square Petri dish. One AU-gel was stained with Coomassie brilliant blue and one AU gel was washed 3×4 min in 10 mM NaPO4, pH 7.4 and then placed on top of the agarose and incubated for 4 h at 37°C. The AU gel was then removed and an overlay agarose (6% SAB, 1% agarosetype 1 (Sigma)) was poured on top of the underlay and incubated over night at 30°C. To make the clearing zones more visible, the agarose was stained with Coomassie brilliant blue followed by destaining.

E. coli (strain 37.4) = test: Antibacterial CFU assay; format: cell-based; details: purified MSP 10 µM + 20 µM EDTA or recombinant dialyzed MSP 10 µM + 10 µM EDTA; low and neutral pH; data not shown
Method: as §3, with “E. coli (strain 37.4), S. aureus (strain 5120), S. pyogenes (M5 Manfredo), S. agalactiae (SB1), and E. faecalis (strain 2374) were grown in THY medium (Todd Hewitt with addition of yeast) and on THY agar plates at 37°C with 5% (v/v) CO2. Candida” for “Candida”

[2] = tested on: S. pyogenes (M5 Manfredo); test: Antibacterial CFU assay; format: cell-based; details: purified MSP 10 µM + 20 µM EDTA or recombinant dialyzed MSP 10 µM + 10 µM EDTA; neutral pH; data not shown
Method: as §3, with “E. coli (strain 37.4), S. aureus (strain 5120), S. pyogenes (M5 Manfredo), S. agalactiae (SB1), and E. faecalis (strain 2374) were grown in THY medium (Todd Hewitt with addition of yeast) and on THY agar plates at 37°C with 5% (v/v) CO2. Candida” for “Candida”

S. agalactiae (SB1) = test: Antibacterial CFU assay; format: cell-based; details: purified MSP 10 µM + 20 µM EDTA or recombinant dialyzed MSP 10 µM + 10 µM EDTA; neutral pH; data not shown
Method: as §3, with “E. coli (strain 37.4), S. aureus (strain 5120), S. pyogenes (M5 Manfredo), S. agalactiae (SB1), and E. faecalis (strain 2374) were grown in THY medium (Todd Hewitt with addition of yeast) and on THY agar plates at 37°C with 5% (v/v) CO2. Candida” for “Candida”

S. aureus (strain 5120) = test: Antibacterial CFU assay; format: cell-based; details: purified MSP 10 µM + 20 µM EDTA or recombinant dialyzed MSP 10 µM + 10 µM EDTA; neutral pH; data not shown
Method: as §3, with “E. coli (strain 37.4), S. aureus (strain 5120), S. pyogenes (M5 Manfredo), S. agalactiae (SB1), and E. faecalis (strain 2374) were grown in THY medium (Todd Hewitt with addition of yeast) and on THY agar plates at 37°C with 5% (v/v) CO2. Candida” for “Candida”

[3] = tested on: E. faecalis (strain 2374); test: Antibacterial CFU assay; format: cell-based; details: purified MSP 10 µM + 20 µM EDTA or recombinant dialyzed MSP 10 µM + 10 µM EDTA; low and neutral pH; data not shown
Method: as §3, with “E. coli (strain 37.4), S. aureus (strain 5120), S. pyogenes (M5 Manfredo), S. agalactiae (SB1), and E. faecalis (strain 2374) were grown in THY medium (Todd Hewitt with addition of yeast) and on THY agar plates at 37°C with 5% (v/v) CO2. Candida” for “Candida”

Row | Molecule | Lysis of erythrocytes (erythrocytes) | LDH release from HaCaT cells (HaCaT cells) | Effect of 0.5 mM calcium on antifungal activity ([1]; acidic pH, Figure S2) | Estimate (difference between means of log values) ([1]; 140 µM + 0.5 mM calcium, experiment 1) | Estimate (difference between means of log values) ([1]; 140 µM + 0.5 mM calcium, experiment 2) | Estimate (difference between means of log values) ([1]; 140 µM + 0.5 mM calcium, experiment 3) | Estimate (difference between means of log values) ([1]; 140 µM + 0.5 mM magnesium, experiment 1) | Estimate (difference between means of log values) ([1]; 140 µM + 0.5 mM magnesium, experiment 2) | Estimate (difference between means of log values) ([1]; 140 µM + 0.5 mM magnesium, experiment 3) | Estimate (difference between means of log values) ([1]; 140 µM, experiment 1) | Estimate (difference between means of log values) ([1]; 140 µM, experiment 2) | Estimate (difference between means of log values) ([1]; 140 µM, experiment 3) | Calcium concentration inhibiting the antifungal activity ([1]; neutral pH, Figure S2) [µM] | Clearing zone in antifungal gel overlay assay (C. albicans) | Antibacterial activity in CFU assay (E. coli (strain 37.4)) | Antibacterial activity in CFU assay [2] | Antibacterial activity in CFU assay (S. agalactiae (SB1)) | Antibacterial activity in CFU assay (S. aureus (strain 5120)) | Antibacterial activity in CFU assay [3] | Fungicidal activity in CFU assay ([1]; native MSP 10 µM + 20 µM EDTA or recombinant dialyzed MSP 10 µM + 10 µM EDTA)
1 | RIFKKQDCKYI [MSP66–76E/Q, mutated form of MSP66–76 where E71 was substituted with a glutamine] | No significant LDH release or lysis | No significant LDH release | not inhibited | 3.1854 | 2.1182 | 2.6879 | 4.0137 | 1.7951 | 4.5634 | 5.3523 | 5.6354 | 5.8836 | 50 to 100 |  |  |  |  |  |  | 
2 | B1 |  |  |  |  |  |  |  |  |  |  |  |  |  | displayed antifungal activity by producing a clearing zone | no antibacterial activity | no antibacterial activity | no antibacterial activity | no antibacterial activity | no antibacterial activity | prominent fungicidal activity
